Assay results reported in US9763905B2, “Therapeutic target for the treatment of cancers and related therapies and methods” (CHILDREN'S MEDICAL CENTER CORPORATION, priority 2013, dated 2017).
Entries after “also recorded” stand apart in the source; their conditions may differ. Where two headings read alike, the source gives them in different places.

What was measured:
[1] = tested on: control human foreskin fibroblast (Hs27) cell line; assay: Cell viability assay (Cell Counting Kit-8), Example 5; type: cell-based; details: DHA 0-250 μM, TAK-875 0-0.4 μM, 3 and 6 days
Description: (§1) Neuroblastoma cell lines used to perform the present studies include: ShSY5Y, IMR-32, SK-NSH, SK-NAS. Melanoma cell lines used include: A2058, A375, and SK-Mel3. Medullary thyroid carcinoma cell line used includes: TT. Malignant peripheral nerve sheath tumor used includes: sNF94.3. Control cell lines used included: human foreskin fibroblast line (Hs27), breast cancer cell lines (MCF-7 and […]), human umbilical vein endothelial cells (HUVEC) and human melanocytes (HMn). ShSY5Y was cultured in MEM/F12 containing 10% heat inactivated fetal bovine serum (FBS) (Invitrogen/GIBCO, Grand Island, N.Y.). IMR-32 was cultured in MEM containing 10% FBS (Invitrogen/GIBCO). SK-NSH was cultured in RPMI-1640 containing 10% FBS (Invitrogen/GIBCO). SK-Mel 3 was cultured in McCoy's 5a containing 10% FBS (Invitrogen/GIBCO). TT was cultured in F-12K containing 10% FBS (ATCC, Manassas, Va.). […] was cultured in Leibovitz's L-15 containing 10% FBS (ATCC). HUVEC was cultured with EGM-2 Bullet Kit (Lonza, Hopkinton, Mass.). HMn were cultured in MGM-4 (Lonza). All other cell lines were cultured in DMEM with 10% FBS (Invitrogen/GIBCO). Cells were incubated at 37° C. in a humidified atmosphere with 5% CO2. Cells were plated in 96-well plates to approximately 50% confluence prior to initial treatment.
(§2) Cells treated with the GPR40 agonist DHA had growth media that was replaced with each respective media containing 1% FBS and 0.1% FA-free BSA with varying concentrations of DHA (Cayman Chemical, Ann Arbor, Mich.) ranging from 0-250 μM solubilized in ethanol (Pharmco-Aaper, Brookfield, Conn.). Cells treated with the GPR40 agonist TAK-875 had growth media that was replaced with each respective media containing 10% FBS with varying concentration of TAK-875 (Selleck Chemicals, Houston, Tex.) ranging from 0-0.4 μM solubilized in dimethyl sulfoxide (Sigma-Aldrich, St. Louis, Mo.). Following 72 hours (TAK-875) or 144 hours (DHA) of treatment, viable cells were quantified using an absorbance-based cell viability assay (Cell Counting Kit-8, Dojindo, Kumamoto, Japan).

[2] = tested on: human foreskin fibroblast (Hs27) control cell line; assay: Cell viability assay (Cell Titer Blue), Examples 1, 3, 4; type: cell-based; details: DHA 25-250 μM 144 hours, GW9508 25-150 μM 72 hours, TAK-875 0-0.4 μM
Description: (§3) The human foreskin fibroblast (Hs27) and human melanoma (A2058, A375, SK-Mel 3) cell lines were purchased from ATCC (Manassas Va.). Cells were plated in 48-well plates at a concentration of 7.5×10^3cells/well in either DMEM (Hs27, A2058, A375; Invitrogen/GIBCO, Grand Island N.Y.) or McCoy's 5a medium (SK-Mel 3; Invitrogen/GIBCO) supplemented with 10% FBS (Invitrogen/GIBCO) and incubated at 37° C. in a humidified atmosphere with 5% CO2. After 24 hours the medium was replaced with either DMEM (HS27, A2058, A375) or McCoy's 5a Medium (SK-Mel 3) containing 1% heat […] (Invitrogen/GIBCO) and 0.1% FA-free BSA (Invitrogen/GIBCO) with various concentrations of DHA (Martek, Columbia Md.) prepared in 4 μL of ETOH. DHA was provided at 25-250 μM, and in the studies that follow GW9508 was provided at 25-150 μM and TAK-875 was provided at 0-0.4 μM. Controls were treated with 4 μL of ETOH. All concentrations were tested in quadruplicate.
(§4) Following 144 hours of DHA treatment cells were trypsinized (Trypsin-EDTA; Invitrogen/GIBCO) and viable cells were counted using an absorbance-based cell viability assay (Cell Titer Blue Cell Viability Assay; Promega, Madison Wis.). During the treatment, medium was changed at 72 hours for the DHA studies. Cell counts were reported as a percent of the control cell count.
(§5) Human foreskin fibroblast (Hs27) and human melanoma (A2058, A375, SK-Mel 3) cell lines (ATCC, Manassas Va.) were plated in 48-well plates at a concentration of 7.5×10^3cells/well in either DMEM (Hs27, A2058, A375; Invitrogen/GIBCC, Grand Island N.Y.) or McCoy's 5a Medium (SK-Mel 3; Invitrogen/GIBCO) supplemented with 10% FBS (Invitrogen/GIBCO) and incubated at 37° C. in a humidified atmosphere with 5% CO2. After 24 hours the medium was replaced with either DMEM (HS27, A2058, A375) or McCoy's 5a Medium (SK-Mel 3) containing 1% heat inactivated-FBS (Invitrogen/GIBCO) and 0.1% FA-free BSA (Invitrogen/GIBCO) with various concentrations of GW9508 (Cayman Chemical, Ann Arbor Mich.) prepared in 4 μL of ETOH, as described in Example 1. Controls were treated with 4 μL of ETOH. All concentrations were tested in quadruplicate.
(§6) Following 72 hours of treatment (GW9508) cells were trypsinized (Trypsin-EDTA; Invitrogen/GIBCO) and viable cells were counted using an absorbance-based cell viability assay (Cell Titer Blue Cell Viability Assay; Promega, Madison Wis.). Cell counts are reported as a percent of the control cell count.
(§7) Given the high expression of GPR40 and the negligible expression of GPR120 by the human melanoma cells evaluated, further studies were performed using the selective, potent and orally bioavailable GPR40 agonist, TAK-875 (Selleck Chemicals) consistent with the methods disclosed in Examples 1 and 3. In particular, such studies were performed to evaluate the ability of TAK-875 to exert an inhibitory effect on human melanoma cell lines in vitro relative to a control fibroblast cell line (Hs27) and the human breast cancer cell line MCF-7, as well as to further evaluate the mechanisms via which compounds such as omega-3 fatty acids exert their cellular effects on human melanoma.

[3] = tested on: SK-Mel3 human melanoma cell line; assay: as above; type: cell-based; details: DHA 25-250 μM 144 hours, GW9508 25-150 μM 72 hours, TAK-875 0-0.4 μM
Description: as §3, §4, §5, §6, §7

[4] = tested on: A375 human melanoma cell line; assay: as above; type: cell-based; details: DHA 25-250 μM 144 hours, GW9508 25-150 μM 72 hours, TAK-875 0-0.4 μM
Description: as §3, §4, §5, §6, §7

[5] = tested on: A2058 human melanoma cell line; assay: as above; type: cell-based; details: DHA 25-250 μM 144 hours, GW9508 25-150 μM 72 hours, TAK-875 0-0.4 μM
Description: as §3, §4, §5, §6, §7

[6] = tested on: human breast cancer cell line MCF-7; assay: Cell viability assay, Example 4; type: cell-based; details: TAK-875
[7] = tested on: human medullary thyroid carcinoma cell line (TT); assay: Cell viability assay (Cell Counting Kit-8), Example 5; type: cell-based; details: DHA 0-250 μM, TAK-875 0-0.4 μM, 3 and 6 days
Description: as §1, §2

human melanocytes (HMn) = assay: as above; type: cell-based; details: HMn primary melanocytes; DHA 0-250 μM, TAK-875 0-0.4 μM; 3 and 6 days
Description: as §1, §2

[8] = tested on: malignant peripheral nerve sheath tumor (MPNST) (sNF94.3) cell line; assay: as above; type: cell-based; details: DHA 0-250 μM, TAK-875 0-0.4 μM, 3 and 6 days
Description: as §1, §2

[9] = tested on: human umbilical vein endothelial cells (HUVEC); assay: as above; type: cell-based; details: DHA 0-250 μM, TAK-875 0-0.4 μM, 3 and 6 days
Description: as §1, §2

[10] = healthy human subjects, very high doses; cited from earlier work
[11] = tested on: SK-Mel 3 human melanoma cell line; assay: Cell viability assay (Cell Counting Kit-8), Example 5; type: cell-based; details: DHA 0-250 μM, TAK-875 0-0.4 μM, 6 days
Description: as §1
as §2, with “Following 72 hours (TAK-875) or 144 hours (DHA) of treatment, viable cells were quantified using an absorbance-based cell viability assay (Cell Counting Kit-8, Dojindo, Kumamoto, Japan).” left out

[12] = tested on: A375 human melanoma cell line; assay: as above; type: cell-based; details: DHA 0-250 μM, TAK-875 0-0.4 μM, 6 days
Description: as §1
as §2, with “Following 72 hours (TAK-875) or 144 hours (DHA) of treatment, viable cells were quantified using an absorbance-based cell viability assay (Cell Counting Kit-8, Dojindo, Kumamoto, Japan).” left out

[13] = tested on: A2058 human melanoma cell line; assay: as above; type: cell-based; details: DHA 0-250 μM, TAK-875 0-0.4 μM, 6 days
Description: as §1
as §2, with “Following 72 hours (TAK-875) or 144 hours (DHA) of treatment, viable cells were quantified using an absorbance-based cell viability assay (Cell Counting Kit-8, Dojindo, Kumamoto, Japan).” left out

[14] = tested on: human melanoma (A2058) xenograft; assay: Murine subcutaneous xenograft model of human melanoma, established tumors, oral TAK-875; type: in vivo, SCID mice; details: 100 mg/kg/day oral, N=7/group
Description: The subcutaneous murine xenograft model of human melanoma was created in 6-week old severe combined immunodeficiency (SCID) mice (Jackson Laboratories, Bar Harbor, Me.) by subcutaneous injection of 1×10^6 human melanoma cells (A2058) in […] of PBS (Invitrogen/GIBCC) into the left flank of each animal. Animal weights and tumor dimensions were measured every 48 hours. Tumor volume was calculated using the following formula: volume=length×width^2×0.52. In accordance with the methods disclosed in Example 2, a murine subcutaneous xenograft model of human melanoma was prepared and used to test the effect of once daily oral TAK-875 on the growth of established melanoma tumors in vivo. Animals were treated daily for 14 days with either a control solution or an oral solution of TAK-875 (100 mg/kg/day) from the time their tumor volume reached 200 mm^3. […] Most importantly the change in tumor volume from start of drug treatment to completion of 14 days of treatment, was 77% lower in the TAK-875 group compared to placebo (P=0.04, FIG. 3G).

[15] = rat, in vivo; cited from earlier work
[16] = tested on: SK-NAS neuroblastoma cell line; assay: Cell viability assay (Cell Counting Kit-8), Example 5; type: cell-based, human; details: DHA 0-250 μM, TAK-875 0-0.4 μM, 3 and 6 days
Description: as §1, §2

[17] = tested on: SK-NSH neuroblastoma cell line; assay: as above; type: cell-based, human; details: DHA 0-250 μM, TAK-875 0-0.4 μM, 3 and 6 days
Description: as §1, §2

[18] = tested on: ShSY5Y neuroblastoma cell line; assay: as above; type: cell-based, human; details: DHA 0-250 μM, TAK-875 0-0.4 μM, 3 and 6 days
Description: as §1, §2

[19] = tested on: IMR-32 neuroblastoma cell line; assay: as above; type: cell-based, human; details: DHA 0-250 μM, TAK-875 0-0.4 μM, 3 and 6 days
Description: as §1, §2

[20] = tested on: breast cancer cell line MDA-MB-321; assay: as above; type: cell-based, human; details: TAK-875, 6 days
Description: as §1, with “treatment. […]” for “treatment.”

[21] = tested on: breast cancer cell line MCF-7; assay: as above; type: cell-based, human; details: TAK-875, 6 days
Description: as §1, with “treatment. […]” for “treatment.”

## CC/C=C\C/C=C\C/C=C\C/C=C\C/C=C\C/C=C\CCC(=O)O [DHA, docosahexaenoic acid]
[1]
  cell viability / toxicity in control cell line: Little to no effect; also recorded: little effect; also recorded: Toxicity was observed in the control Hs27 cell line at high concentrations
[2]
  effect on growth / toxicity in control fibroblasts: no growth inhibition

## O=C(O)CCc1ccc(NCc2cccc(Oc3ccccc3)c2)cc1 [GW9508]
[3]
  effect on growth / viable cell count (percent of control): profound inhibitory effect on the growth
[4]
  effect on growth / viable cell count (percent of control): profound inhibitory effect on the growth
[2]
  effect on growth / toxicity in control fibroblasts: not toxic
[5]
  effect on growth / viable cell count (percent of control): profound inhibitory effect on the growth

## Cc1cc(OCCCS(C)(=O)=O)cc(C)c1-c1cccc(COc2ccc3c(c2)OC[C@H]3CC(=O)O)c1 [TAK-875]
[6]
  effect on growth: did not influence the growth
[1]
  cell viability / toxicity in control cell line: Little to no effect; also recorded: little effect; also recorded: Toxicity was observed in the control Hs27 cell line at high concentrations
[7]
  cell viability: pronounced decrease
Human melanocytes (HMn)
  cell viability: dramatic decrease in cell viability
[8]
  cell viability: pronounced effect
[9]
  cell viability: minimal change in viability
[10]
  safety and tolerability: safe and well tolerated
[11]
  cell viability: significant decrease in cell viability
[12]
  cell viability: significant decrease in cell viability
[13]
  cell viability: significant decrease in cell viability
[14]; 14 days, from tumor volume 200 mm^3, P=0.03
  tumors smaller in volume versus placebo: 62%
[14]; 14 days, from tumor volume 200 mm^3, P=0.07
  tumors smaller in weight versus placebo: 46%
[14]; 14 days
  animal weights versus placebo: not significantly different
[14]; P=0.04
  change in tumor volume from start of drug treatment to completion of 14 days, lower compared to placebo: 77%
[15]
  safety and tolerability: safe and well tolerated
[3]
  effect on growth / viable cell count (percent of control): robust and selective cytotoxic effect
[4]
  effect on growth / viable cell count (percent of control): robust and selective cytotoxic effect
[2]
  effect on growth / toxicity in control fibroblasts: did not influence the growth
[5]
  effect on growth / viable cell count (percent of control): robust and selective cytotoxic effect
[16]
  cell viability: significantly attenuated viability
[17]
  cell viability: significantly attenuated viability
[18]
  cell viability: significantly attenuated viability
[19]
  cell viability: significantly attenuated viability
[20]
  cell viability: decrease in cell viability was observed at high concentrations
[21]
  cell viability: decrease in cell viability was observed at high concentrations
